Read-outs that look alike come from different tables or passages of the source.

The text below walks through data of patent publication US9199946B2, “Pyrimidinone carboxamide inhibitors of endothelial lipase” (BRISTOL-MYERS SQUIBB COMPANY, priority 2012, dated 2015).

For this experiment, the target named is T1, Endothelial lipase (EL) (Homo sapiens, UniProt Q9Y5X9).
T1 construct: HT-1080 cells, which were transformed by RAGE technology (Athersys) to overexpress endogenous EL; endogenous in cells; conditioned medium used as the enzyme source
T1 sequence (Q9Y5X9 21-500): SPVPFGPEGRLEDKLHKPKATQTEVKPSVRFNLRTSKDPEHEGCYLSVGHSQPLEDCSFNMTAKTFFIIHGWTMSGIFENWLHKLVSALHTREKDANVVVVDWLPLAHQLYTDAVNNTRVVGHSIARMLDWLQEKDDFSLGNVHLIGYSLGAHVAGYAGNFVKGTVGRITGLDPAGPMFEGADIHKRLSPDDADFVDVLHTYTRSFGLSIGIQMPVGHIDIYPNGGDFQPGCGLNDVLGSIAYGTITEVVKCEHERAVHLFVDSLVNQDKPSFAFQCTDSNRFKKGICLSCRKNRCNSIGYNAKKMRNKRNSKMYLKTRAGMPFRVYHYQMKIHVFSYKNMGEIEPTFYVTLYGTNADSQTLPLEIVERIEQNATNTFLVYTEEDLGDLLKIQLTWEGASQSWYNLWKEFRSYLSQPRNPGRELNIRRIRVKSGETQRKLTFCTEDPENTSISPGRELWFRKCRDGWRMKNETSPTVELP
The experiment is described as follows: Endothelial lipase (EL) enzymatic assay with fluorescent substrate A10070 in DMPG vesicles. The class given is biochemical. As for the experimental part:
Endothelial lipase activity was measured using a fluorescent substrate, A10070, (Invitrogen, CA) doped into an artificial vesicle containing DMPG (Avanti Polar Lipids) as the excipient. Vesicles were prepared by combining 285 μL of 1 mM DMPG in a 1:1 mixture of MeOH and CHCl3 with 15 μL of 1 mM A10070 in a 1:1 mixture of MeOH and CHCl3. The mixture was dried under nitrogen and resuspended in 150 μL of 50 mM HEPES pH 8.0 buffer containing 100 mM NaCl and 0.2 mM EDTA. The sample was allowed to sit at rt for 15 min and then was sonicated 3×4 mins on ice with a Branson Sonicator using duty cycle 1. This preparation provides vesicles with a mole fraction of 0.05 for the FRET substrate.
The enzymatic assay was measured using white, opaque 96-well half area plates. Each well contained 60 μL of assay buffer (50 mM HEPES pH 8.0, 50 mM NaCl and 1 mM CaCl2) and 2 ul of a DMSO solution containing compound of interest. Conditioned media obtained from HT-1080 cells, which were transformed by RAGE technology (Athersys) to overexpress endogenous EL, was added and the reaction was allowed to incubate for 20 min at 37° C. with gentle agitation. The reaction was started by the addition of 20 μL of a 1:4 dilution of vesicles. The final total reaction volume was 100 μL. The reaction rates were measured on a Gemini plate reader with an excitation wavelength of 488 nm and an emission of 530 nm. Readings were taken every 20 seconds for 10 min with agitation between each reading. The slope of the linear portion of the readout was used to calculate the rate of the reaction.

Where [1] appears, read: range observed in the EL assay, read-out: EL IC50 values.
Setting [2] is: conditioned media from HT-1080 cells overexpressing endogenous EL, 20 min preincubation at 37° C., read-out: EL IC50.

Broadly, the IC50 is the concentration at which inhibition is half-maximal. Consider `COc1ccc2c(c1)CCCC2NC(=O)c1[nH]c(=O)[nH]c(=O)c1N` (centres unmarked) [Example 31, 5-amino-N-(6-methoxy-1,2,3,4-tetrahydronaphthalen-1-yl)-2,6-dioxo-1,2,3,6-tetrahydropyrimidine-4-carboxamide], for which the IC50 under setting [1] is at most 10 µM.

`Nc1c(C(=O)NC2CCOc3ccccc32)[nH]c(=O)[nH]c1=O` (centres unmarked) [Example 32, 5-amino-N-(chroman-4-yl)-2,6-dioxo-1,2,3,6-tetrahydropyrimidine-4-carboxamide]: the IC50 under setting [2] came out at 3.74 µM and the IC50 under setting [1] was at most 10 µM.

Turning to `Nc1c(C(=O)N[C@@H]2CCCc3cc(OCC(F)(F)F)ccc32)[nH]c(=O)[nH]c1=O` [Example 33, (R)-5-amino-2,6-dioxo-N-(6-(2,2,2-trifluoroethoxy)-1,2,3,4-tetrahydronaphthalen-1-yl)-1,2,3,6-tetrahydropyrimidine-4-carboxamide], the IC50 under setting [1] is at most 10 µM.

On to `Nc1c(C(=O)N[C@H]2CCCc3cc(OCC(F)(F)F)ccc32)[nH]c(=O)[nH]c1=O` [Example 34, (S)-5-amino-2,6-dioxo-N-(6-(2,2,2-trifluoroethoxy)-1,2,3,4-tetrahydronaphthalen-1-yl)-1,2,3,6-tetrahydropyrimidine-4-carboxamide], for which the IC50 under setting [1] was at most 10 µM.

On to `Nc1c(C(=O)N[C@H]2CCCc3c(OCC(F)(F)F)cccc32)[nH]c(=O)[nH]c1=O` [Example 35, (S)-5-amino-2,6-dioxo-N-(5-(2,2,2-trifluoroethoxy)-1,2,3,4-tetrahydronaphthalen-1-yl)-1,2,3,6-tetrahydropyrimidine-4-carboxamide], for which the IC50 under setting [1] was at most 10 µM.

Turning to `Nc1c(C(=O)N[C@@H]2CCCc3c(OCC(F)(F)F)cccc32)[nH]c(=O)[nH]c1=O` [Example 36, (R)-5-amino-2,6-dioxo-N-(5-(2,2,2-trifluoroethoxy)-1,2,3,4-tetrahydronaphthalen-1-yl)-1,2,3,6-tetrahydropyrimidine-4-carboxamide], the IC50 under setting [1] was at most 10 µM.

With `COc1ccc2c(c1)C(NC(=O)c1[nH]c(=O)[nH]c(=O)c1N)CCC2` (centres unmarked) [Example 39, 5-amino-N-(7-methoxy-1,2,3,4-tetrahydronaphthalen-1-yl)-2,6-dioxo-1,2,3,6-tetrahydropyrimidine-4-carboxamide], under setting [1], the IC50 is at most 10 µM.

On to `Nc1c(C(=O)N[C@@H]2CCCc3ccc(F)cc32)[nH]c(=O)[nH]c1=O` [Example 40, (R)-5-amino-N-(7-fluoro-1,2,3,4-tetrahydronaphthalen-1-yl)-2,6-dioxo-1,2,3,6-tetrahydropyrimidine-4-carboxamide], for which, under setting [1], the IC50 was at most 10 µM.

`Nc1c(C(=O)N[C@H]2CCCc3ccc(F)cc32)[nH]c(=O)[nH]c1=O` [Example 41, (S)-5-amino-N-(7-fluoro-1,2,3,4-tetrahydronaphthalen-1-yl)-2,6-dioxo-1,2,3,6-tetrahydropyrimidine-4-carboxamide]: the IC50 under setting [1] is at most 10 µM.

In the case of `Nc1c(C(=O)N[C@@H]2C[C@@H](c3ccccc3)c3ccccc32)[nH]c(=O)[nH]c1=O` [Example 42, 5-amino-2,6-dioxo-N-((1R,3S)-3-phenyl-2,3-dihydro-1H-inden-1-yl)-1,2,3,6-tetrahydropyrimidine-4-carboxamide], the IC50 under setting [1] is at most 10 µM.

Regarding `COC(=O)[C@H]1CC[C@@H](NC(=O)c2[nH]c(=O)[nH]c(=O)c2N)CC1` [Example 43, cis-methyl 4-(5-amino-2,6-dioxo-1,2,3,6-tetrahydropyrimidine-4-carboxamido) cyclohexanecarboxylate], the IC50 under setting [1] is at most 10 µM.

As for `CC(C)(C)C1CCC(NC(=O)c2[nH]c(=O)[nH]c(=O)c2N)CC1` (centres unmarked) [Example 44, 5-amino-N-(4-tert-butylcyclohexyl)-2,6-dioxo-1,2,3,6-tetrahydropyrimidine-4-carboxamide], the IC50 under setting [1] was at most 10 µM.

As to `Nc1c(C(=O)NC2CCCc3c2sc2nc[nH]c(=O)c32)[nH]c(=O)[nH]c1=O` (centres unmarked) [Example 45, 5-amino-2,6-dioxo-N-(4-oxo-1,4,5,6,7,8-hexahydro[1]benzothieno[2,3-d]pyrimidin-8-yl)-1,2,3,6-tetrahydro-4-pyrimidinecarboxamide], the IC50 under setting [2] stood at 3.37 µM and the IC50 under setting [1] is at most 10 µM.

Regarding `Nc1c(C(=O)NC2CCCc3ccsc32)[nH]c(=O)[nH]c1=O` (centres unmarked) [Example 46, 5-amino-2,6-dioxo-N-(4,5,6,7-tetrahydrobenzo[b]thiophen-7-yl)-1,2,3,6-tetrahydropyrimidine-4-carboxamide], the IC50 runs as follows: under setting [2], 3.32 µM; under setting [1], at most 10 µM.

As for `COc1cccc2c1CCCC2NC(=O)c1[nH]c(=O)[nH]c(=O)c1N` (centres unmarked) [Example 47, 5-amino-N-(5-methoxy-1,2,3,4-tetrahydronaphthalen-1-yl)-2,6-dioxo 1,2,3,6-tetrahydropyrimidine-4-carboxamide], under setting [1], the IC50 was at most 10 µM.

As to `Nc1c(C(=O)N[C@H]2CC[C@@H](c3nc(-c4ccc(Cl)c(Cl)c4)no3)CC2)[nH]c(=O)[nH]c1=O` [Example 48, 5-amino-N-(cis-4-(3-(3,4-dichlorophenyl)-1,2,4-oxadiazol-5-yl)cyclohexyl)-2,6-dioxo-1,2,3,6-tetrahydropyrimidine-4-carboxamide], the IC50 is, setting by setting: under setting [2], 0.447 µM; under setting [1], at most 10 µM.

Take `Nc1c(C(=O)N[C@@H]2CCCc3c2cccc3C(F)(F)F)[nH]c(=O)[nH]c1=O` [Example 49, (R)-5-amino-2,6-dioxo-N-(5-(trifluoromethyl)-1,2,3,4-tetrahydronaphthalen-1-yl)-1,2,3,6-tetrahydropyrimidine-4-carboxamide]: under setting [1], the IC50 was at most 10 µM.

On to `Nc1c(C(=O)N[C@H]2CCCc3c2cccc3C(F)(F)F)[nH]c(=O)[nH]c1=O` [Example 50, (S)-5-amino-2,6-dioxo-N-(5-(trifluoromethyl)-1,2,3,4-tetrahydronaphthalen-1-yl)-1,2,3,6-tetrahydropyrimidine-4-carboxamide], for which the IC50 under setting [1] was at most 10 µM.

In the case of `Nc1c(C(=O)N[C@@H]2CCCc3cc(C(F)(F)F)ccc32)[nH]c(=O)[nH]c1=O` [Example 51, (R)-5-amino-2,6-dioxo-N-(6-(trifluoromethyl)-1,2,3,4-tetrahydronaphthalen-1-yl)-1,2,3,6-tetrahydropyrimidine-4-carboxamide], the IC50 under setting [1] is at most 10 µM.

For `Nc1c(C(=O)N[C@H]2CCCc3cc(C(F)(F)F)ccc32)[nH]c(=O)[nH]c1=O` [Example 52, (S)-5-amino-2,6-dioxo-N-(6-(trifluoromethyl)-1,2,3,4-tetrahydronaphthalen-1-yl)-1,2,3,6-tetrahydropyrimidine-4-carboxamide], the half-maximal inhibitory concentration (IC50) under setting [1] was at most 10 µM.

For the compound `Nc1c(C(=O)N[C@@H]2CCCc3ccc(C(F)(F)F)cc32)[nH]c(=O)[nH]c1=O` [Example 53, (R)-5-amino-2,6-dioxo-N-(7-(trifluoromethyl)-1,2,3,4-tetrahydronaphthalen-1-yl)-1,2,3,6-tetrahydropyrimidine-4-carboxamide], the IC50 was 0.018 µM under setting [2] and at most 10 µM under setting [1].

On to `Nc1c(C(=O)N[C@H]2CCCc3ccc(C(F)(F)F)cc32)[nH]c(=O)[nH]c1=O` [Example 54, (S)-5-amino-2,6-dioxo-N-(7-(trifluoromethyl)-1,2,3,4-tetrahydronaphthalen-1-yl)-1,2,3,6-tetrahydropyrimidine-4-carboxamide], for which the IC50 reads like this: under setting [2], 7.16 µM; under setting [1], at most 10 µM.

`Nc1c(C(=O)N[C@H]2CCc3ccc(Br)cc32)[nH]c(=O)[nH]c1=O` [Example 55, (S)-5-amino-N-(6-bromo-2,3-dihydro-1H-inden-1-yl)-2,6-dioxo-1,2,3,6-tetrahydropyrimidine-4-carboxamide]: the IC50 under setting [1] was at most 10 µM.

Take `COC(=O)C1CCCCC1NC(=O)c1[nH]c(=O)[nH]c(=O)c1N` (centres unmarked) [Example 56, methyl 2-(5-amino-2,6-dioxo-1,2,3,6-tetrahydropyrimidine-4-carboxamido) cyclohexanecarboxylate]: the IC50 under setting [1] was at most 10 µM.

As for `CC1C(NC(=O)c2[nH]c(=O)[nH]c(=O)c2N)CC2(C(C)C)CC12` (centres unmarked) [Example 57, 5-amino-N-(1-isopropyl-4-methylbicyclo[3.1.0]hexan-3-yl)2,6-dioxo-1,2,3,6-tetrahydropyrimidine-4-carboxamide], the IC50 reads like this: under setting [2], 4.89 µM; under setting [1], at most 10 µM.
